Experiment [1] deals with CXCR4/CXCL12 induced p-MEK. Kind of experiment: CXCR4/CXCL12 induced p-MEK in Jurkat cells (ELISA). The experiment is classed as cell-based, human. The following applies: 5 nM CXCL12, 5 min. On the procedure:
The assay was performed following a protocol similar to that described by Peng, et al., Mol Cancer Ther., 14 480-90 (2015), incorporated herein by reference. […] Jurkat cells were resuspended in standard growth media (RPMI+GlutaMax media; Gibco/Thermo Fisher Scientific; Gaithersburg, Md.) containing 10% FBS and 1% penicillin/streptomycin. Assays were performed using fresh or conditioned media (media cultured overnight in presence of Jurkat cells) to resuspend cells at density of 2×10^6 cells/ml and […] of cell suspension was immediately placed in 1.7 ml microfuge tubes. […] Following the 5 min incubation, cells were centrifuged at 1000×g for 4 min at 4° C. The supernatant was removed and the cells were rinsed with 1 ml of HBSS containing calcium and magnesium. The HBSS was removed and the cells were immediately lysed in 150 l of lysis buffer included with Phospho-MEK1 (Ser217/221) Sandwich ELISA kit (Cell Signaling Technology; Danvers, Mass.); lysis buffer was supplemented with 1 m M PMSF (Millipore-Sigma; Saint Louis, Mo.) and Halt protease/phosphatase inhibitor cocktail (Thermo-Fisher; Waltham, Mass.) prior to use. The samples were then placed on ice for 10 min and vortexed periodically. Following the lysis step, the samples were centrifuged at 12,500 rpm for 10 min at 4° C. p-MEK expression in each of the samples was then measure using Phospho-MEK1 (Ser217/221) Sandwich ELISA kit according to manufacturer's instructions. Absorbance was measured using a Cytation 3 plate reader at […] (BioTek; Winooski, Vt.).

Experiment [2] concerns Jurkat cells. Kind of experiment: CXCL12 mediated cell migration, Jurkat cells. The experiment is classed as cell-based, human. To be noted: 1.1 μM test article, 100 ng/ml CXCL12, 1 hour. Here is the method: The assay was performed following a protocol similar to that described by Peng, et al., Mol Cancer Ther., 14480-90 (2015), incorporated herein by reference. Peptides were initially prepared as 1 mM stock in H2O and tested at a final concentration of 1.1 μM. […] Jurkat cells were resuspended in serum free media (RPMI+GlutaMax; Gibco/Thermo Fisher Scientific; Gaithersburg, Md.) containing 0.5% bovine serum albumin at density of 5×10^6 cells/ml. […] Cells (250,000 cells in 50 μl) supplemented with the appropriate treatments were seeded on to the upper chamber of a 96-well 5 μm HTS Transwell filter insert (Corning/Costar; Tewksbury, Mass.). […] Filter inserts were immediately placed on top of 96-well receiver trays and placed at 37° C. in a humidified atmosphere of 5% CO2/95% air for 1 hour. Following the 1 hour incubation period the filter inserts were carefully removed and the migration of cells across the filter into the bottom chamber (receiver wells) was determined by measuring ATP levels using Cell TiterGlo 2.0, according to manufacturer's instructions (Promega; Madison, Wis.); luminescence was measured using a Cytation 3 plate reader (BioTek; Winooski, Vt.).

The target of experiment [3] is T1, human CXCR4 (Homo sapiens, UniProt P61073). Kind of experiment: CXCR4/CXCL12 binding, HTRF format, single concentration (Example 23). Also on record: host or cells: HEK293 (Tag-lite CXCR4 cells, frozen aliquots, transient expression). The following applies: 15 nM CXCR4R fluorescent probe, 3 hours, HEK293 Tag-lite CXCR4 cells. In a few lines:
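Tag-lite CXCR4 cells were exposed to peptide at 400 nM final with 15 nM (EC80) fluorescent CXCR4 probe for 3 h at room temperature. HTRF was read, and the 665/620 nm ratio ×10,000 measured probe bound to terbium-labelled receptor.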

Experiment [4] concerns the target T1, human CXCR4. Kind of experiment: IC50 for inhibition of CXCR4 activation, β-Arrestin recruitment (Example 22). The experiment is classed as cell-based. Also on record: host or cells: C2C12 (mouse myoblast) CXCR4 β-Arrestin PathHunter cell line. Here is the method:
The assay was run with the DiscoverX protocol. β-Arrestin recruitment assays were performed by Eurofins-DiscoverX (Fremont, Calif.) using C2C12 CXCR4 β-Arrestin cell line (co-expressing ProLink tagged human CXCR4 and Enzyme Acceptor tagged β-Arrestin) and PathHunter detection kit. Peptides were initially prepared as 1 mM stock in H2O and tested in ten (10)-step concentration response curves using 3-fold dilution steps with 1 μM as highest concentration; a concentration range of 1 μM-0.05 nM was tested. C2C12 CXCR4 β-Arrestin cells were seed onto 384-well plates in standard medium. […] At the end of the 90 min incubation period, β-Arrestin recruitment in response to various treatments was quantified using a chemiluminescent complementation reporter assay to measure association of tagged human […] (ProLink tag) and tagged β-Arrestin (Enzyme Acceptor tag).

Square brackets hold non-standard residues; d marks the D form. Peptide text beside a SMILES is read from it.

T1 sequence (P61073 whole entry): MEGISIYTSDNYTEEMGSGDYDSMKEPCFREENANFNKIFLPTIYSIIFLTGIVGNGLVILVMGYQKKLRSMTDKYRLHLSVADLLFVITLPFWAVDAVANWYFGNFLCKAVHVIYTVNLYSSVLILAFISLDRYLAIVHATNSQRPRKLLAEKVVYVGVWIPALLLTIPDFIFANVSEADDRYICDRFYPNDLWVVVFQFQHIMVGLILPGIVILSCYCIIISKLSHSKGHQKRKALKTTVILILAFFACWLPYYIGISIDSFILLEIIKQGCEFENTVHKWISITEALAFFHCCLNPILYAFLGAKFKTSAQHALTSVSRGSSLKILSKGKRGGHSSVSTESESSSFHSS

Regarding `CC(C)C[C@H](NC(=O)[C@H](CO)NC(=O)[C@H](CO)NC(=O)[C@H](CCCNC(=N)N)NC(=O)[C@@H](NC(=O)[C@H](CO)NC(=O)[C@H](Cc1c[nH]cn1)NC(=O)[C@H](Cc1c[nH]cn1)NC(=O)[C@H](Cc1ccc(O)cc1)NC(=O)[C@H](CCCNC(=N)N)NC(=O)[C@H](CCC(=O)O)NC(=O)[C@@H](N)CC(C)C)C(C)C)C(=O)N[C@@H](CCCNC(=N)N)C(=O)N1CCC[C@H]1C(=O)N[C@@H](Cc1ccc(O)cc1)C(=O)N[C@H](C(=O)O)[C@@H](C)O` [compound 18] (H-LERYHHSVRSSLRPYT-OH; N-terminus and C-terminus assumed), in experiment [1], the “Percent Inhibition of CXCR4/CXCL12 Induced p-MEK (100 nM Test Article)” value is reported as 45% and the “Percent Inhibition of CXCR4/CXCL12 Induced p-MEK (1 μM Test Article)” value worked out at 78%. Further, in experiment [2], the “Percent Inhibition of CXCL12 Mediated Migration (1.1 μM Test Article)” value turned out to be 66%. Further, the “Percent Inhibition of CXCR4/CXCL12 Binding (400 nM peptide)” value in experiment [3] is 57%.

Turning to `CC(C)C[C@H](NC(=O)[C@H](CO)NC(=O)[C@@H](NC(=O)[C@H](CCCNC(=N)N)NC(=O)[C@@H](NC(=O)[C@H](CO)NC(=O)[C@H](Cc1c[nH]cn1)NC(=O)[C@H](Cc1c[nH]cn1)NC(=O)[C@H](Cc1ccc(O)cc1)NC(=O)[C@H](CCCNC(=N)N)NC(=O)[C@H](CCCNC(=N)N)NC(=O)[C@@H](N)CC(C)C)C(C)C)[C@@H](C)O)C(=O)N[C@@H](CCCNC(=N)N)C(=O)N1CCC[C@H]1C(=O)N[C@@H](Cc1ccc(O)cc1)C(=O)N[C@H](C(=O)N[C@@H](CCCCN)C(=O)O)[C@@H](C)O` [compound 70] (H-LRRYHHSVRTSLRPYTK-OH; N-terminus and C-terminus assumed), in experiment [1], the “Percent Inhibition of CXCR4/CXCL12 Induced p-MEK (100 nM Test Article)” value is 57% and the “Percent Inhibition of CXCR4/CXCL12 Induced p-MEK (1 μM Test Article)” value is recorded as 93%. Also, in experiment [2], the “Percent Inhibition of CXCL12 Mediated Migration (1.1 μM Test Article)” value is given as 21%. In experiment [3], the “Percent Inhibition of CXCR4/CXCL12 Binding (400 nM peptide)” value was found to be 11%.

For the compound `CC(C)C[C@H](NC(=O)[C@@H](NC(=O)[C@H](CO)NC(=O)[C@H](CCCNC(=N)N)NC(=O)[C@@H](NC(=O)[C@H](CO)NC(=O)[C@H](Cc1c[nH]cn1)NC(=O)[C@H](Cc1c[nH]cn1)NC(=O)[C@H](Cc1ccc(O)cc1)NC(=O)[C@H](CCCNC(=N)N)NC(=O)[C@H](CCCNC(=N)N)NC(=O)[C@@H](N)CC(C)C)C(C)C)[C@@H](C)O)C(=O)N[C@@H](CCCNC(=N)N)C(=O)N1CCC[C@H]1C(=O)N[C@@H](Cc1ccc(O)cc1)C(=O)N[C@H](C(=O)N[C@@H](CCCCN)C(=O)O)[C@@H](C)O` [compound 71] (H-LRRYHHSVRSTLRPYTK-OH; N-terminus and C-terminus assumed), in experiment [1], the “Percent Inhibition of CXCR4/CXCL12 Induced p-MEK (100 nM Test Article)” value was 56% and the “Percent Inhibition of CXCR4/CXCL12 Induced p-MEK (1 μM Test Article)” value amounted to 94%. Moreover, in experiment [4], it took 3 nM to reach half-maximal inhibition (IC50). Moreover, in experiment [3], the “Percent Inhibition of CXCR4/CXCL12 Binding (400 nM peptide)” value is recorded as 29%.

For `CC(C)C[C@H](NC(=O)[C@H](CO)NC(=O)[C@H](CO)NC(=O)[C@H](CCCNC(=N)N)NC(=O)[C@@H](NC(=O)[C@H](CO)NC(=O)[C@H](Cc1c[nH]cn1)NC(=O)[C@H](Cc1c[nH]cn1)NC(=O)[C@H](Cc1ccc(O)cc1)NC(=O)[C@H](CCCNC(=N)N)NC(=O)[C@H](CCCNC(=N)N)NC(=O)[C@@H](N)CC(C)C)C(C)C)C(=O)N[C@@H](CCCNC(=N)N)C(=O)N1CCC[C@H]1C(=O)N[C@@H](Cc1ccc(O)cc1)C(=O)N[C@@H](CO)C(=O)N[C@@H](CCCCN)C(=O)O` [compound 72] (H-LRRYHHSVRSSLRPYSK-OH; N-terminus and C-terminus assumed), in experiment [1], the “Percent Inhibition of CXCR4/CXCL12 Induced p-MEK (100 nM Test Article)” value turned out to be 8% and the “Percent Inhibition of CXCR4/CXCL12 Induced p-MEK (1 μM Test Article)” value is recorded as 86%. The compound also returned a 50% inhibitory concentration (IC50) in experiment [4] of 5 nM. In addition, the “Percent Inhibition of CXCR4/CXCL12 Binding (400 nM peptide)” value in experiment [3] stood at 6%.

With `CC(C)C[C@H](NC(=O)[C@H](CO)NC(=O)[C@@H](NC(=O)[C@H](CCCNC(=N)N)NC(=O)[C@@H](C)NC(=O)[C@H](CO)NC(=O)[C@H](Cc1c[nH]cn1)NC(=O)[C@H](Cc1c[nH]cn1)NC(=O)[C@H](Cc1ccc(O)cc1)NC(=O)[C@H](CCCNC(=N)N)NC(=O)[C@H](CCC(=O)O)NC(=O)[C@@H](N)CC(C)C)[C@@H](C)O)C(=O)N[C@@H](CCCNC(=N)N)C(=O)N1CCC[C@H]1C(=O)N[C@@H](Cc1ccc(O)cc1)C(=O)N[C@H](C(=O)N[C@@H](CCCCN)C(=O)O)[C@@H](C)O` [compound 76] (H-LERYHHS[dA]RTSLRPYTK-OH; N-terminus and C-terminus assumed), in experiment [1], the “Percent Inhibition of CXCR4/CXCL12 Induced p-MEK (100 nM Test Article)” value is given as 5% and the “Percent Inhibition of CXCR4/CXCL12 Induced p-MEK (1 μM Test Article)” value is 44%. This compound showed an IC50 in experiment [4] of 6 nM. Further, the “Percent Inhibition of CXCR4/CXCL12 Binding (400 nM peptide)” value in experiment [3] is reported as 75%.

Turning to `CC(C)C[C@H](NC(=O)[C@@H](NC(=O)[C@H](CO)NC(=O)[C@H](CCCNC(=N)N)NC(=O)[C@@H](C)NC(=O)[C@H](CO)NC(=O)[C@H](Cc1c[nH]cn1)NC(=O)[C@H](Cc1c[nH]cn1)NC(=O)[C@H](Cc1ccc(O)cc1)NC(=O)[C@H](CCCNC(=N)N)NC(=O)[C@H](CCC(=O)O)NC(=O)[C@@H](N)CC(C)C)[C@@H](C)O)C(=O)N[C@@H](CCCNC(=N)N)C(=O)N1CCC[C@H]1C(=O)N[C@@H](Cc1ccc(O)cc1)C(=O)N[C@H](C(=O)N[C@@H](CCCCN)C(=O)O)[C@@H](C)O` [compound 77] (H-LERYHHS[dA]RSTLRPYTK-OH; N-terminus and C-terminus assumed), in experiment [1], the “Percent Inhibition of CXCR4/CXCL12 Induced p-MEK (100 nM Test Article)” value is listed as 7% and the “Percent Inhibition of CXCR4/CXCL12 Induced p-MEK (1 μM Test Article)” value was found to be 68%. In experiment [4], this compound displayed an IC50 of 4 nM. The “Percent Inhibition of CXCR4/CXCL12 Binding (400 nM peptide)” value in experiment [3] amounted to 77%.

`CC(C)C[C@H](NC(=O)[C@H](CO)NC(=O)[C@H](CO)NC(=O)[C@H](CCCNC(=N)N)NC(=O)[C@@H](C)NC(=O)[C@H](CO)NC(=O)[C@H](Cc1c[nH]cn1)NC(=O)[C@H](Cc1c[nH]cn1)NC(=O)[C@H](Cc1ccc(O)cc1)NC(=O)[C@H](CCCNC(=N)N)NC(=O)[C@H](CCC(=O)O)NC(=O)[C@@H](N)CC(C)C)C(=O)N[C@@H](CCCNC(=N)N)C(=O)NCC(=O)N[C@@H](Cc1ccc(O)cc1)C(=O)N[C@H](C(=O)N[C@@H](CCCCN)C(=O)O)[C@@H](C)O` [compound 81] (H-LERYHHS[dA]RSSLRGYTK-OH; N-terminus and C-terminus assumed): in experiment [1], the “Percent Inhibition of CXCR4/CXCL12 Induced p-MEK (100 nM Test Article)” value is −16% and the “Percent Inhibition of CXCR4/CXCL12 Induced p-MEK (1 μM Test Article)” value was found to be 20%. In addition, the IC50 in experiment [4] came out at 3 nM. Further, the “Percent Inhibition of CXCR4/CXCL12 Binding (400 nM peptide)” value in experiment [3] came out at 81%.
